58 compounds from the METLIN SMRT retention time set (Domingo-Almenara et al. 2019) can be followed below.

The data set can be described thus: gradient 5% acetonitrile 3 min, to 50% in 2 min, to 85% in 15 min, held 3 min, 100 µL/min. To be noted: column: Zorbax Extend-C18 2.1 x 50 mm; eluents: water / acetonitrile, 0.1% formic acid. A digest of the protocol:
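Each retention time is based on an adduct peak selected computationally and verified by manual inspection. Measurements used HPLC–quadrupole time-of-flight mass spectrometry in positive and negative ionization mode on mixtures of ~100 pure standards. Chromatography ran on a Zorbax Extend-C18 column (2.1 × 50 mm, 1.8 μm) at 100 μL/min with water and acetonitrile, each containing 0.1% formic acid, and dead and dwell volumes of 40 μL and 900 μL.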
`Cc1noc(C)c1S(=O)(=O)N1CCCC(c2nc(CNC(=O)C(C)C)cs2)C1` (stereo not drawn) had an RP-LC retention time of 796 s.

Compound `CCOc1ccccc1NC(=O)Cn1c(=O)n(-c2ccccc2)c(=O)c2c1cc(C)n2C` had an RP-LC retention time of 909 s.

On to `CCOc1ccccc1C(=O)N1CCCC1c1nc(-c2ccccc2OC)no1` (stereo not drawn), for which the RP-LC retention time came out at 886 s.

The compound `Cc1ccc(CNC(=O)N2CCC3(CC2)NC(=O)c2cccc(Cl)c2N3)cc1` registered an RP-LC retention time of 773 s.

Regarding `Cc1ccc(CN2C[C@@H](CO)[C@H](c3nc(C)no3)C2)cc1`, the RP-LC retention time worked out at 592 s.

`CC(C)n1cnc2cc(CNC(=O)c3ccsc3)ccc21` displayed an RP-LC retention time of 579 s.

Compound `O=C(Nc1ccc(N2CCN(c3ccccc3)C2=O)nc1)c1cc(F)cc(F)c1` yielded an RP-LC retention time of 1020 s.

As to `O=C(Nc1cnc(N2CCCC2)nc1)c1ccccc1`, the RP-LC retention time worked out at 676 s.

Turning to `Cn1cccc1-c1cc2n(n1)CCC(=O)N2CCCC(=O)NCCCc1ccccc1`, the RP-LC retention time worked out at 833 s.

`COc1ccc(-c2nnc(-c3ccc(Cl)c(S(=O)(=O)N(C)C)c3)o2)cc1` had an RP-LC retention time of 913 s.

With `CCn1cnc(S(=O)(=O)N2CCCC(C(=O)N3CCN(c4ccc(F)cc4)CC3)C2)c1` (stereo not drawn), the RP-LC retention time worked out at 752 s.

In turn, `CCc1ccc(NC(=O)N2CCC(CN3CCCC(C)C3)CC2)cc1` (stereo not drawn) showed an RP-LC retention time of 662 s.

Compound `CN1CCCN(C(=O)CN2CCCc3nc(C4CC4)ncc3C2=O)CC1` yielded an RP-LC retention time of 570 s.

With `Cc1nc2ccn(Cc3ccco3)c(=O)c2cc1C(=O)NC1CCCCC1`, the RP-LC retention time came to 751 s.

`O=S(c1cc(Cl)cc(Cl)c1O)c1cc(Cl)cc(Cl)c1O` had an RP-LC retention time of 1160 s.

In turn, `Cc1ccc(CNC(=O)Cn2cnc3nc4c(cc3c2=O)CCCC4)cc1` showed an RP-LC retention time of 728 s.

`CNCC[C@@H](Oc1ccccc1C)c1ccccc1` had an RP-LC retention time of 728 s.

Compound `O=C(c1ccc(Nc2nn3c(=O)c4ccccc4nc3s2)cc1)N1CCN(c2ccccn2)CC1` returned an RP-LC retention time of 622 s.

Turning to `CCc1ccc(C2=C(C)C(N3CCCN(C(C)=O)CC3)=NS2(=O)=O)cc1`, the RP-LC retention time is 745 s.

Take `COc1cc(OC)cc(C(=O)Nc2nc(C(=O)NC(C)c3ccccc3)cs2)c1` (stereo not drawn): the RP-LC retention time was found to be 873 s.

With `Nc1nnc(-c2cccnc2)s1`, the RP-LC retention time was 587 s.

With `COC(=O)c1ccc(NC(=O)C2(C)Oc3cccnc3N(C(C)C)C2=O)cc1` (stereo not drawn), the RP-LC retention time is 991 s.

Consider `COc1ccc(NC(=O)C2CC(=O)N(CCc3c[nH]c4ccc(F)cc34)C2)c(OC)c1` (stereo not drawn), for which the RP-LC retention time came to 793 s.

On to `Cc1ccc(N2C(=O)C3N=NN(Cc4nc(-c5ccccc5Br)no4)C3C2=O)cc1F` (stereo not drawn), for which the RP-LC retention time was found to be 1010 s.

Compound `CC(C)n1cnc(S(=O)(=O)N2CCC(C(=O)N3CCc4ccccc4C3)CC2)c1` returned an RP-LC retention time of 765 s.

As for `COc1ccccc1Nc1c(-c2ccc(SC)cc2)nc2cnccn12`, the RP-LC retention time stood at 974 s.

For the compound `CSc1ccc(NC(=O)c2cc3c(s2)CN(C2CC2)C3)cc1`, the RP-LC retention time amounted to 644 s.

`COC(=O)c1ccccc1NC(=O)CSc1cc(N2CCN(c3ccccc3F)CC2)ncn1` returned an RP-LC retention time of 1170 s.

`Cc1cc(C(=O)Nc2nc3c(s2)CN(C(=O)c2cccn(C)c2=O)CC3)no1` returned an RP-LC retention time of 595 s.

`Cc1nn(CC(=O)NCc2cccnc2)c(=O)c2nc(-c3ccccc3)sc12` registered an RP-LC retention time of 614 s.

As for `CCn1cc(-c2nc(C)c(C(=O)NCc3ccccc3)s2)c2cccnc21`, the RP-LC retention time was determined as 784 s.

Regarding `CCN(CC)C(=O)c1ccc(-c2nc3cc(NS(=O)(=O)c4ccccc4Cl)ccc3n2C)cc1`, the RP-LC retention time was 695 s.

Turning to `CCOc1ccccc1NC(=O)C1CCN(S(=O)(=O)c2ccc3c(c2)sc(=O)n3CC)CC1`, the RP-LC retention time came out at 922 s.

Regarding `CC(C)c1noc(-c2ccnc(-n3cnc(C(=O)NCc4ccccc4)c3)c2)n1`, the RP-LC retention time was determined as 939 s.

Regarding `CCN(CC)CCCCN1c2ccccc2Oc2ccc(Cl)cc21`, the RP-LC retention time amounted to 843 s.

In the case of `Cc1nc(N2CCN(c3ccccn3)CC2)c2c(C)c(C(=O)Nc3ccc(C)c(Cl)c3)sc2n1`, the RP-LC retention time amounted to 821 s.

As for `COc1ccc(NC(=O)N2C[C@@H]3C[C@H]2C[C@@H]3NS(=O)(=O)c2ccccc2)c(C)c1`, the RP-LC retention time worked out at 764 s.

`Cc1ccn2c(NC(=O)c3ccc(C)c(C)c3)c(-c3ccccc3)nc2c1` gave an RP-LC retention time of 709 s.

Turning to `CCCNC(=O)C1CCCN(c2nc3ncn(CC(=O)Nc4ccc(F)cc4)c(=O)c3s2)C1` (stereo not drawn), the RP-LC retention time was 692 s.

As to `COc1ccc(NC(=O)c2nnc(CSCC(=O)N3CCN(c4ccccn4)CC3)s2)cc1`, the RP-LC retention time amounted to 629 s.

As to `CC(C)Cn1c(=O)c(N2CCN(C(=O)Cc3cccs3)CC2)nc2ccncc21`, the RP-LC retention time was determined as 592 s.

`Cn1nc(C2CCN(C(=O)C3CCCO3)CC2)c2c1CCOC2` (stereo not drawn) registered an RP-LC retention time of 586 s.

For the compound `Cc1ccc(Cl)cc1N1C(=O)CN(S(C)(=O)=O)CC1(C)C(=O)NC1CCCCCC1` (stereo not drawn), the RP-LC retention time amounted to 942 s.

In turn, `Cn1c(CC2CCN(S(=O)(=O)Cc3ccc(F)cc3Cl)C2)nc2cccnc21` (stereo not drawn) showed an RP-LC retention time of 650 s.

Compound `Cc1nc(Nc2ccc(Cl)cn2)sc1C(=O)N1CCN(C(C)C)CC1` registered an RP-LC retention time of 612 s.

In the case of `COc1ccccc1OCC(=O)N1CCN(c2nc(CN3CCOCC3)cs2)CC1`, the RP-LC retention time was determined as 613 s.

In turn, `CCc1nn2c(=O)cc(CSc3nnc(-c4ccc5c(c4)OCO5)o3)nc2s1` registered an RP-LC retention time of 743 s.

For the compound `COCCc1noc([C@@H]2CN(Cc3ccc(C(C)C)cc3)C[C@H]2CO)n1`, the RP-LC retention time stood at 663 s.

For `CN1CCN(CCCNC(=O)CCC(=O)N2CCCn3nc(-c4cn(C)c5ccccc45)cc32)CC1`, the RP-LC retention time came out at 583 s.

Turning to `CC(=O)Nc1nc(-c2ccc3c(c2)N(C)C(=O)C(C)O3)cs1` (stereo not drawn), the RP-LC retention time came to 739 s.

In turn, `CC1=C(C(=O)OCCc2ccccc2)C(c2cccs2)NC(=O)N1` (stereo not drawn) gave an RP-LC retention time of 821 s.

For `CCn1cc(-c2nc(C(=O)Nc3ccc(Cl)cc3F)cs2)c2cccnc21`, the RP-LC retention time was found to be 1350 s.

Regarding `O=S(=O)(c1ccc(F)c(Cl)c1)N1CCc2nc[nH]c2C1`, the RP-LC retention time amounted to 632 s.

`CCCN1CCN(c2cc(C(=O)O)c3cc(NS(=O)(=O)c4ccccc4C)ccc3n2)CC1`: the RP-LC retention time came to 605 s.

Turning to `O=C(NC1CCN(Cc2ccccc2)CC1)C1CC(=O)N(c2n[nH]c3cccc(F)c23)C1` (stereo not drawn), the RP-LC retention time stood at 591 s.

As for `Cc1ccc(NS(=O)(=O)c2cc3n(c2)CCN(C)C3=O)cc1`, the RP-LC retention time stood at 700 s.

In the case of `O=C(Cn1nc2nc(N3CCCC3)ccn2c1=O)Nc1ccc(F)c(Cl)c1`, the RP-LC retention time came to 708 s.

`CC(C)N1CCN(Cc2ccc(C(=O)NCc3ccccc3C(F)(F)F)cc2)C(=O)C1=O` showed an RP-LC retention time of 770 s.
